Experimental findings from patent CN107475146A, “一种链霉菌及其代谢产物粉蝶霉素类化合物在抗肾癌中的应用” (priority 2017, dated 2017) are described below.

Common to all, as to assay type: cell-based
The subject of assay [1] is OS-RC-2 human renal cancer cell line [OS-RC-2人肾癌细胞株]. Put plainly: CCK-8 assay, inhibition of proliferation of OS-RC-2 human renal cancer cells. The conditions noted are these: for IC50: CCK-8, 72 h. For orientation: Formazan colour is commonly taken as a measure of viable cells.
The test system of assay [2] is ACHN human renal cancer cell line [ACHN人肾癌细胞株]. As to the kind of experiment: CCK-8 assay, inhibition of proliferation of ACHN human renal cancer cells. The note with it: 72 h.
Assay [3] has as its system 786-O and ACHN cells [786-O和ACHN细胞]. As to the kind of experiment: CCK-8 assay, 786-O and ACHN human renal cancer cells, result stated jointly for both lines.
The subject of assay [4] is 786-O human renal cancer cell line [786-O人肾癌细胞株]. As to the kind of experiment: CCK-8 assay, inhibition of proliferation of 786-O human renal cancer cells.

The IC50 is the concentration that gives 50% inhibition. A low value points to inhibition by little substance.

A value given as a limit tells only on which side of the number the result lay.

Turning to `CC=C(C)C(O)C(C)C=C(C)C=CCC(C)=CCc1nc(OC)c(OC)c(O)c1C` (centres unmarked) [化合物1, Piericidin A], the IC50 was 5.16 µM in assay [1] (Homo sapiens); 0.4 µM in assay [2] (Homo sapiens); 0.4 to 72 µM in assay [3] (Homo sapiens, joint range over compounds 1, 2, 4 and 5, CCK-8, 72 h); 29.9 µM in assay [4] (Homo sapiens, 786-0, 72 h).
For Piericidin s3a [化合物6], the IC50 in assay [1] was 30.9 µM; in assay [4] (72 h), above 100 µM. The inhibitory activity entry in assay [1] (in words) is given as “具有抑制活性”. For the same molecule, the selectivity result in assay [3] (in words) is given as “具有一定的选择性”.
For IT-143-B [化合物5], the IC50 in assay [1] is 42.1 µM; in assay [4] (72 h) it was 72 µM.
As for Piericidin A2 [化合物2], the IC50 worked out at 16.4 µM in assay [1], 14.2 µM in assay [2] and 50.3 µM in assay [4] (72 h).
On to IT-143-A [compound 4], for which the results for the IC50 in assay [1] and in assay [4] (72 h) were 20.5 µM and 61.1 µM, respectively.
As to Piericidin C2 [化合物3], the IC50 was 22.4 µM in assay [1] and above 100 µM in assay [4] (72 h).
